ChEMBL document CHEMBL5143650, “Synthesis and biological evaluation of new series of quinazoline derivatives as EGFR/HER2 dual-target inhibitors” (Bioorg Med Chem Lett, 2022)
pIC50: −log10 of the molar value.

Legend:
[1] = Inhibition of recombinant human N-terminal His-tagged EGFR (676 to 1255 residues) expressed in Sf21 insect cells at 200 uM using kinase substrate 22 incubated for 30 mins in presence of ATP relative to control
[2] = molecular target: Epidermal growth factor receptor (Homo sapiens, UniProt P00533); assay: Inhibition of recombinant human N-terminal GST-tagged EGFR (669 to 1210 residues) expressed in Sf21 insect cells using kinase substrate 22 incubated for 30 mins in presence of ATP
Sequence of Epidermal growth factor receptor (P00533 whole entry, the tested form may be a part): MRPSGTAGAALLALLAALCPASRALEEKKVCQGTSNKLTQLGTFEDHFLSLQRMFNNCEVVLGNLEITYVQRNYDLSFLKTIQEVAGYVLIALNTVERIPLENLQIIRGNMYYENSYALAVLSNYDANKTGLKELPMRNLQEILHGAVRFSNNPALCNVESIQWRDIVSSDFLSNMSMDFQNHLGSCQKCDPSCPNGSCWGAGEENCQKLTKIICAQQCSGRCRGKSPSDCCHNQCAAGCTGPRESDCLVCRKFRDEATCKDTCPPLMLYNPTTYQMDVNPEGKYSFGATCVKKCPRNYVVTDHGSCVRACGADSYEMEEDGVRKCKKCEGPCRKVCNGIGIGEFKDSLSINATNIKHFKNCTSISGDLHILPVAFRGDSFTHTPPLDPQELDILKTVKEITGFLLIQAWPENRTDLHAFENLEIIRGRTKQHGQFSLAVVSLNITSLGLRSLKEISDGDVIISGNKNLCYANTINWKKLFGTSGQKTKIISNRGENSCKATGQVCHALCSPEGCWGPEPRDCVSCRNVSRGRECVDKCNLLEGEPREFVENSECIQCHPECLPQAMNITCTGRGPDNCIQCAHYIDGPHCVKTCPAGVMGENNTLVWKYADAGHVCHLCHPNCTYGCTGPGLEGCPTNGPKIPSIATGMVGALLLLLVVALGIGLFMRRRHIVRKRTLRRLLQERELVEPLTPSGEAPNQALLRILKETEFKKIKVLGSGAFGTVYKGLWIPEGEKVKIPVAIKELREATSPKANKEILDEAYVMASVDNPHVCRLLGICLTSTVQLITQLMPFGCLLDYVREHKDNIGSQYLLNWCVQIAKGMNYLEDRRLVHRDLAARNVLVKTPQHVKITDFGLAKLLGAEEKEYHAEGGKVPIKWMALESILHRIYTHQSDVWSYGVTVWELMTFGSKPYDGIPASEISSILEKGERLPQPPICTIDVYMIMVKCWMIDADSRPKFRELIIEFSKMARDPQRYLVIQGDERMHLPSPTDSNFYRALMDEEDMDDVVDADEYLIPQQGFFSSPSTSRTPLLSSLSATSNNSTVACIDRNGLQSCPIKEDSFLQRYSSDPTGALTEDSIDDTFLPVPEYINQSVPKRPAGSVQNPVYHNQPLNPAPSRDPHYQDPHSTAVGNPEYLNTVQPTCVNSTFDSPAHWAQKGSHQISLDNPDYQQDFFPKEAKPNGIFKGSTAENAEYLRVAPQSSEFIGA

[3] = Inhibition of recombinant human N-terminal His-tagged EGFR (676 to 1255 residues) expressed in Sf21 insect cells using kinase substrate 22 incubated for 30 mins in presence of ATP
[4] = test system: NCI-H358; assay: Antiproliferative activity against human NCI-H358 cells assessed as reduction in cell viability after 72 hrs by CCK-8 assay; format: functional
[5] = test system: PC-9; assay: Antiproliferative activity against human PC-9 cells expressing EGFR E746/A750 deletion mutant assessed as reduction in cell viability after 72 hrs by CCK-8 assay; format: functional
[6] = test system: Calu-3; assay: Antiproliferative activity against human Calu-3 cells assessed as reduction in cell viability after 72 hrs by CCK-8 assay; format: functional
[7] = Antiproliferative activity against human NCI-H1781 cells expressing HER G776V mutant assessed as reduction in cell viability after 72 hrs by CCK-8 assay; format: functional

| SMILES | inhibition [1] [%] | pIC50 [2] | pIC50 [3] | GI50 [4] [nM] | GI50 [5] [nM] | GI50 [6] [nM] | GI50 [7] [nM] |
| --- | --- | --- | --- | --- | --- | --- | --- |
| C=C(C)C(=O)N1CCN(C(=O)Oc2cc3c(Nc4ccc(Cl)c(Cl)c4F)ncnc3cc2OC)[C@H](C)C1 | 43.6 |  |  |  |  |  |  |
| C=CC(=O)N1CCN(C(=O)Oc2cc3c(Nc4ccc(F)c(C#N)c4)ncnc3cc2OC)[C@H](C)C1 | 13.9 |  |  |  |  |  |  |
| C=CC(=O)N1CCN(C(=O)Oc2cc3c(Nc4cc(C(C)(C)C)no4)ncnc3cc2OC)[C@H](C)C1 | 14.6 |  |  |  |  |  |  |
| C=CC(=O)N1CCN(C(=O)Oc2cc3c(Nc4ccc5scnc5c4)ncnc3cc2OC)[C@H](C)C1 | 5.8 |  |  |  |  |  |  |
| C=C(F)C(=O)N1C[C@@H]2C[C@H]1CN2C(=O)Oc1cc2c(Nc3ccc(Cl)c(Cl)c3F)ncnc2cc1OC | 47.9 |  |  |  |  |  |  |
| C=CC(=O)N1CCN(C(=O)Oc2cc3c(Nc4ccc(C#N)c(Cl)c4)ncnc3cc2OC)[C@H](C)C1 | 11.9 |  |  |  |  |  |  |
| C=CC(=O)N1CCN(C(=O)Oc2cc3c(Nc4cccc(Cl)c4F)ncnc3cc2OC)[C@H](C)C1 | 53.4 | 9.47 | 6.82 | 464 | 6.03 | 264 | > 2000 |
| C=C(F)C(=O)N1CCN(C(=O)Oc2cc3c(Nc4cnc5ccccc5c4)ncnc3cc2OC)[C@H](C)C1 | 11.5 |  |  |  |  |  |  |
| C=CC(=O)N1CCN(C(=O)Oc2cc3c(Nc4ccc5ncccc5c4)ncnc3cc2OC)[C@H](C)C1 | 2.6 |  |  |  |  |  |  |
| C=CC(=O)N1CCN(C(=O)Oc2cc3c(Nc4cnc5ccccc5c4)ncnc3cc2OC)[C@H](C)C1 | 14.9 |  |  |  |  |  |  |
| C=C(C(=O)N1CCN(C(=O)Oc2cc3c(Nc4ccc(Cl)c(Cl)c4F)ncnc3cc2OC)[C@H](C)C1)C(F)(F)F | 82.7 | 9.42 | 7.55 | 1020 | 90.8 | 553 | > 2000 |
| CN(C)C/C=C/C(=O)Nc1cc2c(Nc3ccc(F)c(Cl)c3)ncnc2cc1O[C@H]1CCOC1 [AFATINIB] | 102 |  | 8.77 | 1 | 0.37 | 2.77 | 0.23 |
| C#CC(=O)N1CCN(C(=O)Oc2cc3c(Nc4ccc(Cl)c(Cl)c4F)ncnc3cc2OC)[C@H](C)C1 | 94 | 9.49 | 7.65 | 671 | 299 | 718 | > 2000 |
| C=CC(=O)N1CCN(C(=O)Oc2cc3c(Nc4ccc(C#N)c(F)c4)ncnc3cc2OC)[C@H](C)C1 | 2.3 |  |  |  |  |  |  |
| C=CC(=O)N1CCN(C(=O)Oc2cc3c(Nc4ccc(Cl)c(Cl)c4F)ncnc3cc2OC)[C@H](C)C1 | 48.9 |  |  |  |  |  |  |
| C=C(F)C(=O)N1CCN(C(=O)Oc2cc3c(Nc4ccc(Cl)c(Cl)c4F)ncnc3cc2OC)[C@H](C)C1 | 41.1 |  |  |  |  |  |  |
| C=CC(=O)N1CCN(C(=O)Oc2cc3c(Nc4ccc5ccccc5c4)ncnc3cc2OC)[C@H](C)C1 | 30.8 |  |  |  |  |  |  |
| C=CC(=O)Oc1cc2c(Nc3ccc(Cl)c(Cl)c3F)ncnc2cc1OC | 71.5 | 9.27 | 7.26 | 619 | 92.3 | 1340 | > 2000 |
| C=CC(=O)N1CCC(Oc2cc3c(Nc4ccc(Cl)c(Cl)c4F)ncnc3cc2OC)CC1 [POZIOTINIB] | 97.1 |  | 8.41 | 8.67 | 0.9 | 10.1 | 2.27 |
| C=CC(=O)N1C[C@@H]2C[C@H]1CN2C(=O)Oc1cc2c(Nc3ccc(Cl)c(Cl)c3F)ncnc2cc1OC | 95.8 | 9.52 | 8.22 | 23.3 | 1.95 | 23.1 | 41.6 |
| C=CC(=O)N1CCN(C(=O)Oc2cc3c(Nc4ccc(C#N)cc4)ncnc3cc2OC)[C@H](C)C1 | 4.4 |  |  |  |  |  |  |
